In experiment [1] the target is T1, human EP1 receptor (Homo sapiens, UniProt P34995).
T1 construct: expressed in transfected cells; host or cells: CHO-K1 cells, pCIN vector
T1 sequence (P34995 1-402): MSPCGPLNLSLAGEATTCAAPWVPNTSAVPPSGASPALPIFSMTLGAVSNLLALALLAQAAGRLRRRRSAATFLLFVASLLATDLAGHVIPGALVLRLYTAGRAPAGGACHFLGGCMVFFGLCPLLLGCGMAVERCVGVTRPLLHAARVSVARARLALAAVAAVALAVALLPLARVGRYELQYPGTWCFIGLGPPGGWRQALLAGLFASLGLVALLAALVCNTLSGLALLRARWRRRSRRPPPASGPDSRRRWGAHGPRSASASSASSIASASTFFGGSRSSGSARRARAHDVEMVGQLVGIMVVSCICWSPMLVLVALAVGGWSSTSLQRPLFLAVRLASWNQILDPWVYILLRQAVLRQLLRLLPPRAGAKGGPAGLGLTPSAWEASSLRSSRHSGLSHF
In words: human EP1 calcium mobilisation assay (FLIPR, CHO-K1 cells). The class given is cell-based. As to conditions: antagonism of PGE2-induced calcium mobilisation, CHO-K1 cells expressing EP1; averages of a number of experiments; read-out: functional pKi (converted). As to the method: (§1) Biological Activity at EP1 and EP3 Receptors
(§2) Briefly, the antagonist properties of compounds are assessed by their ability to inhibit the mobilisation of intracellular calcium ([Ca^2+]i) in response to activation of EP1 or EP3 receptors by the natural agonist hormone prostaglandin E2 (PGE2). Increasing concentrations of antagonist reduce the amount of calcium that a given concentration of PGE2 can mobilise. The net effect is to displace the PGE2 concentration-effect curve to higher concentrations of PGE2. The amount of calcium produced is assessed using a calcium-sensitive fluorescent dye such as Fluo-4, AM and a suitable instrument such as a Fluorimetric Imaging Plate Reader (FLIPR). Increasing amounts of [Ca^2+]i produced by receptor activation increase the amount of fluorescence produced by the dye and give rise to an increasing signal. The signal may be detected using the FLIPR instrument and the data generated may be analysed with suitable curve-fitting software.
The human EP1 or EP3 calcium mobilisation assay (hereafter referred to as ‘the calcium assay’) utilises Chinese hamster ovary-K1 (CHO-K1) cells into which a stable (pCIN; BioTechniques 20(1996): 102-110) vector containing either EP1 or EP3 cDNA has previously been transfected. Cells are cultured in suitable flasks containing culture medium such as DMEM:F-12 supplemented with 10% v/v foetal calf serum, 2 mM L-glutamine, 0.25 mg/ml geneticin, 100 μM flurbiprofen and 10 μg/ml puromycin.
For assay, cells are harvested using a proprietary reagent that dislodges cells such as Versene. Cells are re-suspended in a suitable quantity of fresh culture media for introduction into a 384-well plate. Following incubation for 24 hours at 37° C. the culture media is replaced with a medium containing Fluo-4 and the detergent pluronic acid, and a further incubation takes place. Concentrations of compounds are then added to the plate in order to construct concentration-effect curves. This may be performed on the FLIPR in order to assess the agonist properties of the compounds. Concentrations of PGE2 are then added to the plate in order to assess the antagonist properties of the compounds.
The data so generated may be analysed by means of a computerised curve-fitting routine. The concentration of compound that elicits a half-maximal inhibition of the calcium mobilisation induced by PGE2 (pIC50) may then be estimated.
In general terms: Calcium flux is commonly read through the fluorescence of an indicator in the cells.

The target in experiment [2] is T2, human prostanoid EP1 receptor (Homo sapiens, UniProt P34995).
T2 construct: expressed in transfected cells; host or cells: CHO-K1 cells, membrane fraction
T2 sequence (P34995 1-402): T1 sequence (P34995 1-402)
The experiment can be described thus: Binding assay for the human prostanoid EP1 receptor (competition with [3H]-PGE2). As to conditions: [3H]-PGE2 competition, CHO-K1 cell membranes; averages of a number of experiments. As to the method:
Binding Assay for the Human Prostanoid EP1 Receptor
Competition assay using [^3H]-PGE2
Compound potencies are determined using a radioligand binding assay. In this assay compound potencies are determined from their ability to compete with tritiated prostaglandin E2 ([^3H]-PGE2) for binding to the human EP1 receptor.
This assay utilises Chinese hamster ovary-K1 (CHO-K1) cells into which a stable vector containing the EP1 cDNA has previously been transfected. Cells are cultured in suitable flasks containing culture medium such as DMEM:F-12 supplemented with 10% v/v foetal calf serum, 2 mM L-glutamine, 0.25 mg/ml geneticin, […] puromycin and 10 μM indomethacin.
Cells are detached from the culture flasks by incubation in calcium and magnesium free phosphate buffered saline containing 1 mM disodium ethylenediaminetetraacetic acid (Na2EDTA) and 10 μM indomethacin for 5 min. The cells are isolated by centrifugation at 250×g for 5 mins and suspended in an ice cold buffer such as 50 mM Tris, 1 mM Na2EDTA, 140 mM NaCl, 10 μM indomethacin (pH 7.4). The cells are homogenised using a Polytron tissue disrupter (2×10s burst at full setting), centrifuged at 48,000×g for 20 mins and the pellet containing the membrane fraction is washed (optional) three times by suspension and centrifugation at 48,000×g for 20 mins. The final membrane pellet is suspended in an assay buffer such as 10 mM 2-[N-morpholino]ethanesulphonic acid, 1 mM Na2EDTA,10 mM MgCl2 (pH 6). Aliquots are frozen at −80° C. until required.
For the binding assay the cell membranes, competing compounds and [^3H]-PGE2 (3 nM final assay concentrations are incubated in a final volume of 100 μl for 30 min at 30° C. All reagents are prepared in assay buffer. Reactions are terminated by rapid vacuum filtration over GF/B filters using a Brandell cell harvester. The filters are washed with ice cold assay buffer, dried and the radioactivity retained on the filters is measured by liquid scintillation counting in Packard TopCount scintillation counter.
The data are analysed using non linear curve fitting techniques to determine the concentration of compound producing 50% inhibition of specific binding (IC50).

Experiment [3] addresses T3, human EP3 receptor (Homo sapiens, UniProt P43115).
T3 construct: expressed in transfected cells; host or cells: CHO-K1 cells, pCIN vector
T3 sequence (P43115 1-390): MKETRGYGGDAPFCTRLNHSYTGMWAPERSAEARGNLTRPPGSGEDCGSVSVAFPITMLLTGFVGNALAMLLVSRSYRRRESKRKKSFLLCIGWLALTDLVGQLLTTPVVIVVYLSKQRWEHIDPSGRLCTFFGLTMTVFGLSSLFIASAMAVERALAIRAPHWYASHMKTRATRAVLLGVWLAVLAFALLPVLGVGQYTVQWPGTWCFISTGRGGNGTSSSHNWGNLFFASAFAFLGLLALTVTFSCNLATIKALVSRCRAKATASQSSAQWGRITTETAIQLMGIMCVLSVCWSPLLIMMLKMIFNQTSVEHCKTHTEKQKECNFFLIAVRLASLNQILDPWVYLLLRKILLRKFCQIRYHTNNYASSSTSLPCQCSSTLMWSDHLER
The experiment can be described thus: human EP3 calcium mobilisation assay (FLIPR, CHO-K1 cells). The class given is cell-based. As to conditions: antagonism of PGE2-induced calcium mobilisation, CHO-K1 cells expressing EP3; averages of a number of experiments; read-out: functional pKi (converted). As to the method: as §1
as §2, with “software. […]” for “software.”
For assay, cells are harvested using a proprietary reagent that dislodges cells such as Versene. Cells are re-suspended in a suitable quantity of fresh culture media for introduction into a 384-well plate. […]
The data so generated may be analysed by means of a computerised curve-fitting routine. […]

As a reminder, the IC50 is the concentration at which inhibition is half-maximal. High values mean a need for much substance, low ones inhibition by little substance.

For `CCCc1cn(-c2nc(C(=O)O)cs2)c2cc(Cl)ccc12` [Example 1, 2-(6-Chloro-3-propyl-1H-indol-1-yl)-1,3-thiazole-4-carboxylic acid], the Ki in experiment [1] was no more than 100 nM. Besides, the half-inhibitory concentration (IC50) in experiment [2] was no more than 100 nM.
With `CC(C)(C)CCc1cn(-c2nc(C(=O)O)cs2)c2cc(Cl)ccc12` [Example 2, 2-[6-Chloro-3-(3,3-dimethylbutyl)-1H-indol-1-yl]-1,3-thiazole-4-carboxylic acid], in experiment [1], the Ki is no more than 100 nM. In addition, in experiment [2], the half-maximal inhibitory concentration (IC50) was no more than 100 nM.
On to `CC(C)c1cn(-c2nc(C(=O)O)cs2)c2cc(Cl)ccc12` [Example 3, 2-[6-Chloro-3-(1-methylethyl)-1H-indol-1-yl]-1,3-thiazole-4-carboxylic acid], for which the Ki in experiment [1] was no more than 100 nM. In experiment [2], this compound showed a 50% inhibitory concentration (IC50) of no more than 100 nM.
In the case of `CC(C)Cc1cn(-c2nc(C(=O)O)cs2)c2cc(Br)ccc12` [Example 4, 2-[6-Bromo-3-(2-methylpropyl)-1H-indol-1-yl]-1,3-thiazole-4-carboxylic acid], the Ki in experiment [1] was no more than 100 nM. Further, in experiment [2], the IC50 was no more than 100 nM.
With `CC(C)Cc1cn(-c2nc(C(=O)O)co2)c2cc(Cl)ccc12` [Example 5, 2-[6-Chloro-3-(2-methylpropyl)-1H-indol-1-yl]-1,3-oxazole-4-carboxylic acid], the Ki in experiment [1] was no more than 100 nM. In addition, the half-inhibitory concentration (IC50) in experiment [2] was no more than 100 nM.
Turning to `CC(C)Cc1cn(Cc2nc(C(=O)O)cs2)c2cc(Cl)ccc12` [Example 6, 2-{[6-Chloro-3-(2-methylpropyl)-1H-indol-1-yl]methyl}-1,3-thiazole-4-carboxylic acid], the Ki in experiment [1] is no more than 100 nM. The compound further had an IC50 in experiment [2] of no more than 100 nM.
Consider `CC(C)C(=O)c1cn(-c2nc(C(=O)O)cs2)c2cc(Cl)ccc12` [Example 7, 2-[6-Chloro-3-(2-methylpropanoyl)-1H-indol-1-yl]-1,3-thiazole-4-carboxylic acid], for which the Ki in experiment [3] is no less than 2000 nM; in experiment [1] it was no more than 100 nM.
`O=C(O)c1csc(-n2cc(Cc3ccccc3)c3ccc(Cl)cc32)n1` [Example 8, 2-[6-Chloro-3-(phenylmethyl)-1H-indol-1-yl]-1,3-thiazole-4-carboxylic acid]: the Ki in experiment [1] is no more than 100 nM.
On the same count and under the same terms, as for `CC(C)Cc1cn(-c2nc(C(=O)O)cs2)c2ccccc12` [Example 10, 2-[3-(2-Methylpropyl)-1H-indol-1-yl]-1,3-thiazole-4-carboxylic acid], the figure is no more than 100 nM.
Regarding `CC(C)Cc1nn(-c2nc(C(=O)O)cs2)c2cc(Cl)ccc12` [Example 11, 2-[6-Chloro-3-(2-methylpropyl)-1H-indazol-1-yl]-1,3-thiazole-4-carboxylic acid], the Ki in experiment [1] is no more than 100 nM. The compound further gave a concentration for half-maximal inhibition (IC50) in experiment [2] of no more than 100 nM.
`CC(C)(C)Cc1cn(-c2nc(C(=O)O)cs2)c2cc(Cl)ccc12` [Example 12, 2-[6-Chloro-3-(2,2-dimethylpropyl)-1H-indol-1-yl]-1,3-thiazole-4-carboxylic acid]: the Ki in experiment [1] is no more than 100 nM. Further, the half-inhibitory concentration (IC50) in experiment [2] was no more than 100 nM.
As for `CC(C)Cc1cn(-c2nc(C(=O)O)cs2)c2cc(C(F)(F)F)ccc12` [Example 13, 2-[3-(2-Methylpropyl)-6-(trifluoromethyl)-1H-indol-1-yl]-1,3-thiazole-4-carboxylic acid], in experiment [1], the Ki is no more than 100 nM. Further, the IC50 in experiment [2] is no more than 100 nM.
Turning to `CC(C)Cc1cn(-c2nc(CC(=O)O)cs2)c2cc(Cl)ccc12` [Example 15, {2-[6-Chloro-3-(2-methylpropyl)-1H-indol-1-yl]-1,3-thiazol-4-yl}acetic acid], the Ki in experiment [1] is no more than 100 nM.
Consider `CC(C)Cc1cn(-c2nc(C(=O)O)cs2)c2cc(F)ccc12` [Example 16, 2-[6-Fluoro-3-(2-methylpropyl)-1H-indol-1-yl]-1,3-thiazole-4-carboxylic acid], for which the Ki in experiment [1] is no more than 100 nM. The same compound gave a concentration for half-maximal inhibition (IC50) in experiment [2] of no more than 100 nM.
With `CC(C)Cc1cn(-c2nc(C(=O)O)cs2)c2cc(Cl)ccc12` [Example 17, 2-[6-Chloro-3-(2-methylpropyl)-1H-indol-1-yl]-1,3-thiazole-4-carboxylic acid], the Ki in experiment [1] was no more than 100 nM. The half-inhibitory concentration (IC50) in experiment [2] was no more than 100 nM.
Consider `CC(C)Cc1cn(-c2ccc(C(=O)O)o2)c2cc(Cl)ccc12` [Example 18, 5-[6-Chloro-3-(2-methylpropyl)-1H-indol-1-yl]-2-furancarboxylic acid], for which, in experiment [1], the Ki was no more than 100 nM. The compound further gave an IC50 in experiment [2] of no more than 100 nM.
`CC(C)Cc1cn(-c2cccc(C(=O)O)n2)c2cc(Cl)ccc12` [Example 19, 6-[6-Chloro-3-(2-methylpropyl)-1H-indol-1-yl]-2-pyridinecarboxylic acid]: the Ki in experiment [1] is no more than 100 nM. In experiment [2], this compound gave a concentration for half-maximal inhibition (IC50) of no more than 100 nM.
In the case of `CC(C)Cc1cn(-c2ncc(C(=O)O)s2)c2cc(Cl)ccc12` [Example 21, 2-[6-Chloro-3-(2-methylpropyl)-1H-indol-1-yl]-1,3-thiazole-5-carboxylic acid], in experiment [1], the Ki is no more than 100 nM. This compound also had a concentration for half-maximal inhibition (IC50) in experiment [2] of no more than 100 nM.
With `CC(C)Cc1cn(-c2ccc(C(=O)O)s2)c2cc(Cl)ccc12` [Example 22, 5-[6-Chloro-3-(2-methylpropyl)-1H-indol-1-yl]-2-thiophenecarboxylic acid], the Ki in experiment [1] is no more than 100 nM. In addition, the half-maximal inhibitory concentration (IC50) in experiment [2] is no more than 100 nM.
`CC(C)Cc1cn(-c2nc(C(=O)NS(=O)(=O)c3ccccc3)cs2)c2cc(Cl)ccc12` [Example 23, 2-[6-Chloro-3-(2-methylpropyl)-1H-indol-1-yl]-N-(phenylsulfonyl)-1,3-thiazole-4-carboxamide]: the Ki in experiment [1] was no more than 100 nM. In addition, the IC50 in experiment [2] was no more than 100 nM.
For `Cc1ccc2c(CC(C)C)cn(-c3nc(C(=O)O)cs3)c2c1` [Example 24], the Ki in experiment [1] was no more than 100 nM. Also, the concentration for half-maximal inhibition (IC50) in experiment [2] was no more than 100 nM.

Source of the values: patent US20100016371A1, “Indole Compounds” (Glaxo Group Limited, priority 2006, published 2010).
